Measured values reported in ChEMBL document CHEMBL1201862, “PubChem BioAssay data set” (2004).
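Five concentrations, 48 hours, 96-well plates. Abbreviation: GI50, concentration required for 50% inhibition of growth.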 Active and inactive are the calls of the source. No stated cut-off is given here; in the data, active = GI50 up to about 1.1 µM and inactive = higher.

Assays:
Test in all cases: growth of human tumour cells (NCI), 48 h
SN12C = tested on: SN12C
OVCAR-5 = tested on: OVCAR-5
MDA-N = tested on: MDA-N
Hs-578T = tested on: Hs-578T
OVCAR-3 = tested on: OVCAR-3
SW-620 = tested on: SW-620
HL-60 = tested on: HL-60
MDA-MB-435 = tested on: MDA-MB-435
K562 = tested on: K562
SK-MEL-5 = tested on: SK-MEL-5
SK-OV-3 = tested on: SK-OV-3
RXF 393 = tested on: RXF 393
HCC 2998 = tested on: HCC 2998
SF-539 = tested on: SF-539
SNB-19 = tested on: SNB-19
NCI-H226 = tested on: NCI-H226
A498 = tested on: A498
MDA-MB-231 = tested on: MDA-MB-231
HOP-62 = tested on: HOP-62

Measured: GI50

C=CC(C)(C)c1cc([C@@H]2COc3cc(O)ccc3C2=O)c(O)c(OC)c1OC
inactive: SN12C 16.3 µM | OVCAR-5 17.1 µM | MDA-N 7.6 µM | Hs-578T 16.4 µM | OVCAR-3 10.5 µM | SW-620 31.6 µM | HL-60 6.75 µM | MDA-MB-435 6.44 µM | K562 9.66 µM | SK-MEL-5 10.4 µM | SK-OV-3 14.6 µM | HCC 2998 17.1 µM | SF-539 18.8 µM | SNB-19 13.5 µM | NCI-H226 16.5 µM | A498 16.9 µM | MDA-MB-231 13.5 µM
active: RXF 393 0.0173 µM

Cc1c(F)c(NC(=O)CN(C)C)c2c(=O)cc(-c3ccc(NC(=O)CN(C)C)c(F)c3)oc2c1F
inactive: HOP-62 16.6 µM | SN12C 17.8 µM | OVCAR-5 22.8 µM | MDA-N 16.4 µM | Hs-578T 26.9 µM | SW-620 16.2 µM | HL-60 17.1 µM | MDA-MB-435 12.6 µM | K562 13.6 µM | SK-MEL-5 15 µM | SK-OV-3 16.8 µM | RXF 393 12.8 µM | SF-539 17.3 µM | SNB-19 16 µM | NCI-H226 12.6 µM | A498 1.35 µM | MDA-MB-231 13.6 µM
active: HCC 2998 0.678 µM

CC(=O)O[C@@H](c1nccn1Cc1ccccc1)[C@H]1OC(C)(C)O[C@@H]1[C@H]1COC(C)(C)O1
inactive: HOP-62 > 100 µM | SN12C > 100 µM | OVCAR-5 > 100 µM | MDA-N > 100 µM | Hs-578T > 100 µM | OVCAR-3 > 100 µM | SW-620 > 100 µM | HL-60 > 100 µM | MDA-MB-435 > 100 µM | K562 > 100 µM | SK-MEL-5 > 100 µM | RXF 393 > 100 µM | HCC 2998 > 100 µM | SF-539 > 100 µM | NCI-H226 > 100 µM | A498 > 100 µM | MDA-MB-231 > 100 µM
